Source: the CheMixHub ionic liquid set

Test: xn = mol fraction of the nth substance listed

CCCCCC[n+]1ccn(C)c1.O=[N+]([O-])[O-] + CCC(C)O
viscosity [mPa·s], 100 kPa
Conditions | 293.15 K | 298.15 K | 303.15 K | 308.15 K | 313.15 K | 318.15 K | 323.15 K
x1 = 0.0819 | 7.63 | 5.55 | 4.2 | 3.3 | 2.59 | 2.14 | 1.79
x1 = 0.1591 | 14.93 | 10.31 | 7.2 | 5.2 | 3.92 | 3.18 | 2.52
x1 = 0.2414 | 28.5 | 19.3 | 13.16 | 9.1 | 6.75 | 5.3 | 3.9
x1 = 0.3517 | 54.2 | 37.9 | 27.6 | 18 | 13.16 | 10.35 | 7.8
x1 = 0.4412 | 87.8 | 63.7 | 46.7 | 30.6 | 21.5 | 16.77 | 12.8
x1 = 0.5591 | 156.2 | 117.1 | 84.5 | 56.4 | 38 | 29.4 | 23
x1 = 0.6518 | 227 | 172.4 | 117.1 | 81.3 | 58.7 | 43 | 33.6
x1 = 0.7392 | 322 | 238 | 158.7 | 113.3 | 84.5 | 60.9 | 47.3
x1 = 0.8516 | 475 | 342 | 230 | 168.2 | 124.1 | 91.6 | 71.1
x1 = 0.9395 | 641 | 451 | 304 | 218 | 159.2 | 119.8 | 94.4
x1 = 1 | 804 | 545 | 369 | 258 | 186 | 140.2 | 110.9

CCCC[n+]1ccn(C)c1.O=[N+]([O-])[O-] + CCC(C)O
100 kPa
Conditions | viscosity [mPa·s]
293.15 K, x1 = 0.0813 | 5.4
293.15 K, x1 = 0.1595 | 7.3
298.15 K, x1 = 0.1595 | 6.1
298.15 K, x1 = 0.2402 | 8.4
298.15 K, x1 = 0.7398 | 52
298.15 K, x1 = 0.8502 | 79
303.15 K, x1 = 0.1595 | 5.3
303.15 K, x1 = 0.2402 | 7.2
303.15 K, x1 = 0.8502 | 62
308.15 K, x1 = 0.2402 | 6.3
308.15 K, x1 = 0.35 | 9.4
308.15 K, x1 = 0.9399 | 71
308.15 K, x1 = 1 | 97
313.15 K, x1 = 0.2402 | 5.5
313.15 K, x1 = 0.35 | 8.2
313.15 K, x1 = 0.9399 | 57
313.15 K, x1 = 1 | 75
318.15 K, x1 = 0.35 | 7.2
318.15 K, x1 = 0.4403 | 9.7
318.15 K, x1 = 1 | 56
323.15 K, x1 = 0.35 | 6.3
323.15 K, x1 = 0.4403 | 8.5

CCOS(=O)(=O)[O-].CC[n+]1ccn(C)c1 + CCC(C)O
101 kPa
Conditions | viscosity [mPa·s]
298.15 K, x1 = 0.2027 | 6.91
298.15 K, x1 = 0.6944 | 39.6
298.15 K, x1 = 0.7957 | 54.2
303.15 K, x1 = 0.2027 | 6.81
303.15 K, x1 = 0.4906 | 17.37
303.15 K, x1 = 0.8916 | 57.3
308.15 K, x1 = 0.3936 | 9.98
308.15 K, x1 = 0.8916 | 46.8
313.15 K, x1 = 0.2027 | 4.59
313.15 K, x1 = 0.3936 | 9.48
313.15 K, x1 = 0.5916 | 17.67
313.15 K, x1 = 1 | 49.4
318.15 K, x1 = 0.2027 | 4.03
323.15 K, x1 = 0.2937 | 5

CCCCCC[n+]1ccn(C)c1.O=[N+]([O-])[O-] + CCCC(C)O
100 kPa
Conditions | viscosity [mPa·s]
293.15 K, x1 = 0.2408 | 23.7
293.15 K, x1 = 0.7401 | 258
293.15 K, x1 = 0.8508 | 417
298.15 K, x1 = 0.1609 | 10.16
303.15 K, x1 = 0.0814 | 4.67
303.15 K, x1 = 0.7401 | 113.5
308.15 K, x1 = 0.7401 | 75.3
313.15 K, x1 = 0.0814 | 2.69
323.15 K, x1 = 0.0814 | 1.71
323.15 K, x1 = 0.6509 | 16.03
323.15 K, x1 = 1 | 110.9

CCCC[n+]1ccn(C)c1.O=[N+]([O-])[O-] + CCCC(C)O
100 kPa
Conditions | viscosity [mPa·s]
293.15 K, x1 = 0.8501 | 83
303.15 K, x1 = 0.3499 | 6.6
318.15 K, x1 = 0.4399 | 5.9
323.15 K, x1 = 0.5604 | 7.1
323.15 K, x1 = 0.6505 | 9.7

CCCC[N+](CCCC)(CCCC)CCCC.O=S(=O)([O-])O + CCCCCCCCCO
101.3 kPa, x1 = 0.2
Conditions | electrical conductivity [S/m] | viscosity [mPa·s]
293.15 K | 0.00273 | 164.6
298.15 K | 0.00375 | –
303.15 K | 0.00499 | –
308.15 K | 0.00648 | 84.2
313.15 K | 0.0082 | 65.8

CCCCCC[n+]1ccn(C)c1.O=[N+]([O-])[O-] + CCCCCCCO
Conditions | viscosity [mPa·s]
293.15 K, 100 kPa, x1 = 0.4392 | 100.5

CCCC[n+]1ccn(C)c1.O=[N+]([O-])[O-] + CCCCCCCO
viscosity [mPa·s], 100 kPa
Conditions | 293.15 K | 303.15 K | 313.15 K | 323.15 K
x1 = 0.0824 | 7.76 | 5.5 | 3.98 | 2.87
x1 = 0.1625 | 8.67 | 6.03 | 4.34 | 3.03
x1 = 0.2317 | 9.68 | 6.61 | 4.7 | 3.23
x1 = 0.3446 | 11.46 | 7.53 | 5.37 | 3.67
x1 = 0.4317 | 13.2 | 8.53 | 5.96 | 4.12
x1 = 0.5762 | 18.7 | 11.56 | 7.74 | 5.01
x1 = 0.6416 | 24.3 | 14.4 | 9.06 | 5.69
x1 = 0.7334 | 41.3 | 22.6 | 14 | 8.49
x1 = 0.8418 | 82.4 | 43 | 26.4 | 15.8
x1 = 0.9327 | 146 | 77.8 | 47.8 | 28.1
x1 = 1 | 224 | 125 | 75.1 | 45.2

CCOS(=O)(=O)[O-].CC[n+]1ccn(C)c1 + CCCCCCO
100 kPa
Conditions | viscosity [mPa·s]
288.15 K, x1 = 1 | 155.5
293.15 K, x1 = 0.1016 | 7.885
303.15 K, x1 = 0.5956 | 27.85
323.15 K, x1 = 0.4975 | 11.85
